Measured values reported in US20200360332A1, “COMPOUND FOR USE IN THE INCREASING OF MENTAL CAPACITY” (LEIBNIZ-INSTITUT FUER NEUROBIOLOGIE (LIN) STIFTUNG DES …, priority 2017, published 2020).

Key:
[1] = system: Drosophila melanogaster larvae; experiment: Learning experiment E (scent/fructose reward) with Drosophila melanogaster larvae raised on feed mash containing the compound; assay type: in vivo; conditions: for improvement in learning capability compared with FSE-20 (summary statement): Drosophila larvae, effect of FSE-20>FSE-16>>FSE-8; for learning and memory capability P vs control K (Example 2): 7.1×10^−7 M (700 nM) final concentration in feed mash
Protocol: Depicted in FIG. 1A is an overview of a learning experiment E with Drosophila melanogaster larvae. […] One group represents the control group K, which was raised with standard feed mash, and the three other groups were each raised with different concentrations of FSE-20 (7.1×10^−8, 7.1×10^−7, and 7.1×10^−6[M] FSE-20) in the feed mash. After 5 days (arrow with “5d”), the learning experiment E was carried out. In the learning experiment E, the animals were each subjected to one of two inverse training regimens A and then subjected to a test B. The first group I was presented in training A with a first scent with the feed reward (fructose), while a second scent was presented alone (first scent+/second scent). In FIG. 1A, the first scent is depicted as a white square and the second scent as a black square. […] The second group II was trained inversely (first scent/second scent+). In test B of the learning experiment E, it was subsequently examined whether the larvae of the two groups I, II prefer the first scent or the second scent in a selection situation and thus their learning and memory capability (performance index) P was determined. Shown in FIG. 2A is an overview with the compounds used in this example as additions to the feed mash. One group of the Drosophila melanogaster larvae was the control group K, which was raised with standard feed mash. Furthermore, one group was raised with FSE-20 in a concentration of 7.1×10^−7 M in the feed mash. The other groups were raised with a concentration of 7.1×10^−7 M of the different FSE-20 derivatives in the feed mash. These FSE-20 derivatives comprise FSE-8, FSE-12, FSE-16, 4OH-ZSE-20, and DH-FSE-20. After five days (arrow with “5d”), the Drosophila melanogaster larvae were tested in the learning experiment E, as described in Example 1.

[2] = system: older Drosophila melanogaster flies; experiment: Learning experiment E with mature, older Drosophila melanogaster flies fed FSE-20; assay type: in vivo
Protocol: In this experiment, the flies were divided into two groups, a control group K, which was fed with standard feed, and a test group, for which FSE-20 was added to the feed. The concentration of FSE-20in the feed was 7.1×10^−7 M. The flies were tested in a learning experiment E, corresponding to the principle of Example 1, 15 days (arrow with “15d”) after the adult animals had hatched.

mice = experiment: Learning experiment E in mice (conditioned fear, freezing) after intraperitoneal injection; assay type: in vivo; conditions: 6 mg/kg i.p. prior to training
Protocol: In order to determine the effect of FSE-20 on the learning and memory capability P in 3- to 4-month-old mice, the animals underwent intraperitoneal injection with an FSE-20 solution (6 mg/kg body weight) prior to the training A. In the learning experiment E on the next day, the animals were placed in a specific environment during the training A, while the mice were subjected at the same time to an aversive electrical stimulus (lightning symbol). Subsequently, in the first test B-1 one day later (1 d), the nonspecific fear reaction (freezing) F was measured in a neutral environment, that is, in an environment that was new for the animals. In the second test B-2, two hours (2 h) after the first test B-1, the fear reaction in the environment was measured, in that the animals were presented with the electrical stimulus during the training A (conditioned environment).
Shown in FIG. 4B is a graphic illustration that summarizes the results of the learning experiment E on mice. […] The first span of time of the second test comprises the 1st-5th minute and the second span of time comprises the 6th-10th minute. The result of the first span of time is represented as black bars and the result of the second span of time is represented as white bars with black longitudinal stripes.

[3] = system: hippocampal CA1 mouse cells; experiment: Ex vivo patch-clamp electrophysiological recordings on hippocampal CA1 pyramidal cells; assay type: cell-based, mice; conditions: for number of action potentials vs control K: current intensities of 40 to 440 pA
Protocol: The patch-clamp method was carried out on whole CA1 pyramidal cells from “acute” (freshly prepared) hippocampus slices of four-to-six-week-old male mice in order to measure the effects of FSE-20 on neuronal excitability.
Shown are the action potentials of the control K as well as those of the cells treated with FSE-20.
Depicted in FIG. 5B is a graphic illustration in which the number of action potentials is shown in relation to the injected current intensity (pA) of the differently treated cells and of the control group K.

In the case of `CCCCCCCCCCCCCCCCCCCCOC(=O)/C=C/c1ccc(O)cc1` [4OH-ZSE-20, icosyl (2E)-3-(4-hydroxyphenyl)prop-2-enoate], the “improvement in learning capability compared with FSE-20 (summary statement)” value [1] was “weaker, but still marked activity” and the “learning and memory capability P vs control K (Example 2)” value ([1]; larvae, 5 days) was “slight increase”.
With `CCCCCCCCCCCCCCCCCCCCOC(=O)CCc1ccc(O)c(OC)c1` [DH-FSE-20, icosyl 3-(4-hydroxy-3-methoxyphenyl)propanoate] the “improvement in learning capability compared with FSE-20 (summary statement)” value [1] was “less pronounced” and the “learning and memory capability P vs control K (Example 2)” value ([1]; larvae, 5 days) was “increases learning and memory”.
In the case of `CCCCCCCCCCCCCCCCCCCCOC(=O)/C=C/c1ccc(O)c(OC)c1` [FSE-20, icosyl (2E)-3-(4-hydroxy-3-methoxyphenyl)prop-2-enoate], the “improvement of learning and memory capability P in older animals” value ([2]; 7.1×10^−7 M in feed, tested 15 days after hatching) was “approximately 50%”, the “learning capability of older flies (summary statement)” value ([2]; FSE-20 in feed) was “doubled” and the “fear behavior (freezing) F in second half (6th-10th minute) compared with first half (1st-5th minute)” value (mice; mice 3-4 months, second test B-2, conditioned environment) was “just as strongly pronounced”. For the same molecule, the “memory stability vs control” value (mice; mice) was “more stable memory over time”, the “learning and memory capability of larvae (summary statement)” value ([1]; added to feed of larvae) was “significantly in a dose-dependent manner” and the “concentration at which an effect is seen” value ([1]; in feed mash) was 700 nM. The “improvement of learning and memory capability P” value ([1]; larvae, 700 nM in feed mash, 5 days) was “approximately 50%”, the “learning and memory capability P vs control K (Example 2)” value ([1]; larvae, 5 days) was “marked increase” and the “learning and memory capability P (performance index) vs control K” value ([1]; larvae, 7.1×10^−8, 7.1×10^−7 or 7.1×10^−6 M in feed mash, 5 days) was “increased”. For the same molecule, the “learning and memory capability P” value ([1]; larvae, very high concentrations starting at 7 μM in feed mash, 5 days) was “declines once again”, the “learning and memory capability P” value ([1]; larvae, very low concentration, 70 nM in feed mash, 5 days) was “increase in learning tendency” and the “number of action potentials vs control K” value ([3]; 1 μM) was “increased significantly”. The “number of action potentials vs control K” value ([3]; 4 μM) was “increased significantly” and the “excitability of pyramidal CA1 hippocampus cells” value ([3]; ex vivo, summary statement) was “increases in a dose-dependent manner”.
With `CCCCCCCCCCCCOC(=O)/C=C/c1ccc(O)c(OC)c1` [FSE-12, dodecyl (2E)-3-(4-hydroxy-3-methoxyphenyl)prop-2-enoate] the “learning and memory capability P vs control K (Example 2)” value ([1]; larvae, 5 days) was “slight increase”.
With `CCCCCCCCCCCCCCCCOC(=O)/C=C/c1ccc(O)c(OC)c1` [FSE-16, hexadecyl (2E)-3-(4-hydroxy-3-methoxyphenyl)prop-2-enoate] the “improvement in learning capability compared with FSE-20 (summary statement)” value [1] was “less pronounced” and the “learning and memory capability P vs control K (Example 2)” value ([1]; larvae, 5 days) was “increases learning”.
With `CCCCCCCCOC(=O)/C=C/c1ccc(O)c(OC)c1` [FSE-8, octyl (2E)-3-(4-hydroxy-3-methoxyphenyl)prop-2-enoate] the “improvement in learning capability compared with FSE-20 (summary statement)” value [1] was “less pronounced” and the “learning and memory capability P vs control K (Example 2)” value ([1]; larvae, 5 days) was “increases the learning and memory capability P”.
